Calls of active or inactive are those of the source. The rule behind the calls is not given here.
Tests used:
[1] = Metabolic stability in mouse liver microsomes assessed as parent compound remaining; format: ADME, Microsome
[2] = Metabolic stability in human liver microsomes assessed as parent compound remaining; format: ADME, Microsome
[3] = target: T1, Diacylglycerol kinase alpha (Homo sapiens, UniProt P23743); test: Inhibition of human DGK alpha using 1, 2-Dilauroyl-sn-glycerol as substrate by ADP-Glo assay
[4] = target: Diacylglycerol kinase beta (Homo sapiens, UniProt Q9Y6T7); test: Inhibition of human DGK beta using 1, 2-Dilauroyl-sn-glycerol as substrate by ADP-Glo assay
[5] = target: Diacylglycerol kinase gamma (Homo sapiens, UniProt P49619); test: Inhibition of human DGK gamma using 1, 2-Dilauroyl-sn-glycerol as substrate by ADP-Glo assay
[6] = target: T2, Diacylglycerol kinase kappa (Homo sapiens, UniProt Q5KSL6); test: Inhibition of human DGK kappa using 1, 2-Dilauroyl-sn-glycerol as substrate by ADP-Glo kinase assay
T2 sequence (Q5KSL6 whole entry): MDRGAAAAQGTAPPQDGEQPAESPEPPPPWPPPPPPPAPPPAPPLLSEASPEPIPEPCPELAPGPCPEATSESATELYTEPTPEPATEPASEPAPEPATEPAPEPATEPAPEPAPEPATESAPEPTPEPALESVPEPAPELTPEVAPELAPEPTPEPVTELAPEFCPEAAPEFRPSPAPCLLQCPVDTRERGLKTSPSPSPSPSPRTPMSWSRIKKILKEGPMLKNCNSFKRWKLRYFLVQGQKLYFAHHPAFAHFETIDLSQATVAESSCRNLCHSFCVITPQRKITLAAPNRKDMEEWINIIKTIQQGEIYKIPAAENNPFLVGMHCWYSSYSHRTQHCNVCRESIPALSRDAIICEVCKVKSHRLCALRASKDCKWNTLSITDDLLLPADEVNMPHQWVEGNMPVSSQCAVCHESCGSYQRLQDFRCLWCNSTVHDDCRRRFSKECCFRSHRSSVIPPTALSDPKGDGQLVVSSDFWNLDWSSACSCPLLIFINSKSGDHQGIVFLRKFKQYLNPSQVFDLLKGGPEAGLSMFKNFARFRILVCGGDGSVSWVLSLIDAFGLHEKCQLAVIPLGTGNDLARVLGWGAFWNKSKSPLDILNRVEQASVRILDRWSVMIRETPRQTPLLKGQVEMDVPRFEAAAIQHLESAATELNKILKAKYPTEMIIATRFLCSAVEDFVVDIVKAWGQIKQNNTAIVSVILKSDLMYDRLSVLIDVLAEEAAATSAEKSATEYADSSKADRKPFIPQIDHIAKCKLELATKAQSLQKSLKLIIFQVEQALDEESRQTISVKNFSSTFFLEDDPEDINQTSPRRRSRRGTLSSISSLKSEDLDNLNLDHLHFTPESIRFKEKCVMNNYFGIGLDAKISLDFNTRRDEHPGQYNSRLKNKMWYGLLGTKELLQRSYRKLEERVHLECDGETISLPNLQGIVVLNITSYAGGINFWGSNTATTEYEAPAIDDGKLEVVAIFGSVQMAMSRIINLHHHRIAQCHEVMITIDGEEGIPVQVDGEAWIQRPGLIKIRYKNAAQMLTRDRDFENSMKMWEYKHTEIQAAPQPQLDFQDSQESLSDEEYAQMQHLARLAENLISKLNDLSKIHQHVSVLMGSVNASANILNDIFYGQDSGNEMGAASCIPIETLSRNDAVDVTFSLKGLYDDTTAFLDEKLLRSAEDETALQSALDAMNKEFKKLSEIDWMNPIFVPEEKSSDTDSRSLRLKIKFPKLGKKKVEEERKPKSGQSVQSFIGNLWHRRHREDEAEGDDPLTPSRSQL

[7] = target: Diacylglycerol kinase zeta (Homo sapiens, UniProt Q13574); test: Inhibition of human DGK zeta using 1, 2-Dilauroyl-sn-glycerol as substrate by ADP-Glo kinase assay
[8] = target: Diacylglycerol kinase iota (Homo sapiens, UniProt O75912); test: Inhibition of human DGK iota using 1, 2-Dilauroyl-sn-glycerol as substrate by ADP-Glo kinase assay
[9] = Inhibition of DGK in human whole blood cell assessed as increase in IFNgamma level incubated for 1 hr followed by anti-human CD3/ antiCD28 mAB stimulation and measure after 24 hrs by AlphaLISA assay; format: tissue-based
[10] = Inhibition of DGK in human whole blood cell assessed as increase in pERK level incubated for 1 hr followed by anti-human CD3 stimulation and measure after 15 mins by AlphaLISA assay; format: tissue-based
Raji [11] = test: IL2 production in PD-L1 positive human Raji cells measured after 24 hrs by Cell titer glo assay
Raji [12] = test: IL2 production in PD-L1 negative human Raji cells measured after 24 hrs by Cell titer glo assay
[13] = target: T1, Diacylglycerol kinase alpha; test: Inhibition of DGK alpha (unknown origin)
[14] = Induction of proliferation of human CD8-positive T cell measured after 24 hrs by Cell titer glo assay
Mus musculus [15] = test: Immunostimulatory activity in OT-1 mouse model assessed as increase in activated effector T-cells at 10 mg/kg measured after 24 hrs by flow cytometry analysis; format: functional, organism-based
Mus musculus [16] = species on record: Mus musculus; test: Immunostimulatory activity in OT-1 mouse model assessed as increase in activated effector T-cells measured after 24 hrs in presence of SIINFEKL antigen by flow cytometry analysis; format: functional, organism-based; settings: dose 1-10 mg/kg
[17] = AUClast in C57BL6 mouse at 1 mg/kg, iv administered as bolus dose measured upto 72 hrs by LC/MS/MS analysis; format: ADME, organism-based; design: dose 1 mg/kg, time < 72 hrs, route iv; settings: in vivo
[18] = Half life in C57BL6 mouse at 1 mg/kg, iv administered as bolus dose measured upto 72 hrs by LC/MS/MS analysis; format: ADME, organism-based; settings: in vivo
[19] = Clearance in C57BL6 mouse at 1 mg/kg, iv administered as bolus dose measured upto 72 hrs by LC/MS/MS analysis; format: ADME, organism-based; settings: in vivo
[20] = Volume of distribution at steady state in C57BL6 mouse at 1 mg/kg, iv administered as bolus dose measured upto 72 hrs by LC/MS/MS analysis; format: ADME, organism-based; settings: in vivo, read-out: Vdss
[21] = Cmax in C57BL6 mouse at 5 mg/kg, po administered as bolus dose measured upto 72 hrs by LC/MS/MS analysis; format: ADME, organism-based; design: dose 5 mg/kg, time < 72 hrs, route po; settings: in vivo
[22] = Tmax in C57BL6 mouse at 5 mg/kg, po administered as bolus dose measured upto 72 hrs by LC/MS/MS analysis; format: ADME, organism-based; settings: in vivo
[23] = AUClast in C57BL6 mouse at 5 mg/kg, po administered as bolus dose measured upto 72 hrs by LC/MS/MS analysis; format: ADME, organism-based; design: dose 5 mg/kg, time < 72 hrs, route po; settings: in vivo
[24] = Oral bioavailability in C57BL6 mouse at 5 mg/kg administered as bolus dose measured upto 72 hrs by LC/MS/MS analysis; format: ADME, organism-based; settings: in vivo
[25] = Inhibition of DGK in mouse T cell assessed as increase in IFNgamma level incubated for 1 hr by AlphaLISA assay; format: cell-based

Diacylglycerol kinase iota, sequence (O75912 whole entry): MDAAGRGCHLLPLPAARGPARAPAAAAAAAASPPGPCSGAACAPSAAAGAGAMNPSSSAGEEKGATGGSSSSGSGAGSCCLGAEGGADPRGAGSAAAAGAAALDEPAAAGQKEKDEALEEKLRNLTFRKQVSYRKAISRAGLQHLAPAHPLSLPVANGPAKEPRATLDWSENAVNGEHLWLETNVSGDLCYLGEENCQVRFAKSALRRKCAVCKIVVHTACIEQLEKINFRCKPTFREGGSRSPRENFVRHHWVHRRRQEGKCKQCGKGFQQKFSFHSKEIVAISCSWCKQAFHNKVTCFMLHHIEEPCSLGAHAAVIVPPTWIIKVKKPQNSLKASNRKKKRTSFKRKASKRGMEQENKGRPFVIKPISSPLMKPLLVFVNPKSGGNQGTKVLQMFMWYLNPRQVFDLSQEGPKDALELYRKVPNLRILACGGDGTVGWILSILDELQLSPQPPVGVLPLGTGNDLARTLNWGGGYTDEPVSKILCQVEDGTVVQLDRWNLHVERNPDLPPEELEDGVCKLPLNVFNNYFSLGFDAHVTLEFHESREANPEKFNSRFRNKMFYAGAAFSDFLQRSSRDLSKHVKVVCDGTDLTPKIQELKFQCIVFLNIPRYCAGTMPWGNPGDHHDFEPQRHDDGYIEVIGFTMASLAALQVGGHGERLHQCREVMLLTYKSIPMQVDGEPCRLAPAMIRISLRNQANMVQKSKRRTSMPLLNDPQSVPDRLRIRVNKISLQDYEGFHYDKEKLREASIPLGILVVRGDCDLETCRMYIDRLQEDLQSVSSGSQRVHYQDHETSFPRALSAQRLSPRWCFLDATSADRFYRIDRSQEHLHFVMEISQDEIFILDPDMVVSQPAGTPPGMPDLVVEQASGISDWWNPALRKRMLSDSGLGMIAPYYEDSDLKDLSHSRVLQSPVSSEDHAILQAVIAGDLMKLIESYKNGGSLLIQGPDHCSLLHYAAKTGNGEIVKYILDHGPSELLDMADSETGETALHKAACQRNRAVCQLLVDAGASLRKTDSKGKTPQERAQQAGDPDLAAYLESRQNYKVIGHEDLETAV
Diacylglycerol kinase gamma, sequence (P49619 whole entry): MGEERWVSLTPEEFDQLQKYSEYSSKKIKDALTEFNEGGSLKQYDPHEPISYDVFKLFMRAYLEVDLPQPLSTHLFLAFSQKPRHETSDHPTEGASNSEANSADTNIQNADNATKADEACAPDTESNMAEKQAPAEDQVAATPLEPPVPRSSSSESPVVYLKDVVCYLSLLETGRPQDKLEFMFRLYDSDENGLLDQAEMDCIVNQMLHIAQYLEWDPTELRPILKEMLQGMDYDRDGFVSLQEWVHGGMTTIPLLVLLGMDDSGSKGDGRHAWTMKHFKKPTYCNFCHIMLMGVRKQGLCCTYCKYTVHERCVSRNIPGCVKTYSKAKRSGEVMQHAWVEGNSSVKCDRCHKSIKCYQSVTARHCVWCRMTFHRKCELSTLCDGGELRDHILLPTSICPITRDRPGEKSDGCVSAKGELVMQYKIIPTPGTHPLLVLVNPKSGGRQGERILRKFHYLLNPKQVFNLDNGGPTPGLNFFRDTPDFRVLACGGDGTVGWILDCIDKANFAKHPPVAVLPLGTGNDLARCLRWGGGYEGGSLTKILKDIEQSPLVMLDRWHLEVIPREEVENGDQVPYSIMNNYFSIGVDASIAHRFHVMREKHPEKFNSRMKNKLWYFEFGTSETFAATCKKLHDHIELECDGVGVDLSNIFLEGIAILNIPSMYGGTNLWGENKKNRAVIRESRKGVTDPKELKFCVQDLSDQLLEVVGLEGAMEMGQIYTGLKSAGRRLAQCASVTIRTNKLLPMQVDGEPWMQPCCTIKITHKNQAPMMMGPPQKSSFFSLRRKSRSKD
T1 sequence (P23743 whole entry): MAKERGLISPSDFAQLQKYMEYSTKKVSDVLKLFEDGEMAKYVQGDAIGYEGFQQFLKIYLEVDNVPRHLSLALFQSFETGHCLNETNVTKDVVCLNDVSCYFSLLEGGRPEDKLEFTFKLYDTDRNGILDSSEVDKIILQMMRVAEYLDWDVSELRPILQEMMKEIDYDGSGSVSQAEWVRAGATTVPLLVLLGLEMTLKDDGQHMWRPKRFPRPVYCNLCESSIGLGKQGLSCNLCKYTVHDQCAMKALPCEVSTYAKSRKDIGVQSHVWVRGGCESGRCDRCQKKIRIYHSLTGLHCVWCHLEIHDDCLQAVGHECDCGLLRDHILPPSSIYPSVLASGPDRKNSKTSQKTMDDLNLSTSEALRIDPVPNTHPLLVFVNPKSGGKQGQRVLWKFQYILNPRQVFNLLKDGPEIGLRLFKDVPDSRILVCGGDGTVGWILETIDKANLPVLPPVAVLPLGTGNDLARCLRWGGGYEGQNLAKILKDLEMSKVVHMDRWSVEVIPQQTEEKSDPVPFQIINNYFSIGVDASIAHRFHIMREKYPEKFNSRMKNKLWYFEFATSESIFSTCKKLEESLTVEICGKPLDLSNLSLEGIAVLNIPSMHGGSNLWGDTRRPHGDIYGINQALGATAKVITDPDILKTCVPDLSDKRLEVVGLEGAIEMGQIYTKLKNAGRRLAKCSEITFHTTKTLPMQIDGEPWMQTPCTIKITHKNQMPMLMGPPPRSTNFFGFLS
Diacylglycerol kinase zeta, sequence (Q13574 whole entry): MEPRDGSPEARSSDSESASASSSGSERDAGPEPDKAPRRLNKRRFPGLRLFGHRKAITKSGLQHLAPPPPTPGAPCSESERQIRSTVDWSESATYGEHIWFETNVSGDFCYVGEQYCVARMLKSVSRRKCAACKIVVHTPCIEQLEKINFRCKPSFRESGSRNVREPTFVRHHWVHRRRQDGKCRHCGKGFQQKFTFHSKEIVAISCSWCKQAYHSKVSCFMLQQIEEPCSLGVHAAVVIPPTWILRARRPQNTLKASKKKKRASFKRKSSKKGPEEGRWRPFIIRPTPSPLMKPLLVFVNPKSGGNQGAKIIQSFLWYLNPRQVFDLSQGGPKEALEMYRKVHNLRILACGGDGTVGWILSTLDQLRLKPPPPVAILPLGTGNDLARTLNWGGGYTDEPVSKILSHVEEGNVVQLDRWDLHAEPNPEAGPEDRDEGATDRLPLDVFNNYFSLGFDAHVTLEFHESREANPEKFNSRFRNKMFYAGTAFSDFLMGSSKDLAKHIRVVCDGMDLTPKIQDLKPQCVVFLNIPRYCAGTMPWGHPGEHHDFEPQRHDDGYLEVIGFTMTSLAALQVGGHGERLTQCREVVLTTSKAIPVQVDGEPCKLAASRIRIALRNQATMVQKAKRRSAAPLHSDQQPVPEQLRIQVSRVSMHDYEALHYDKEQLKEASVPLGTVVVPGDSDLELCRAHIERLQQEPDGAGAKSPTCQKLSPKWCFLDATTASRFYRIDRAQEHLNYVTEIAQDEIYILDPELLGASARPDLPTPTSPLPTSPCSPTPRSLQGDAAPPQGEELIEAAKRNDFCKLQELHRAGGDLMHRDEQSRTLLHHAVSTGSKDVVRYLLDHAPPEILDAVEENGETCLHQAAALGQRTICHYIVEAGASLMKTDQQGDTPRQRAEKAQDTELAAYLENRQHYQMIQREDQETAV

Cn1c(=O)c([N+](=O)[O-])c(N2CCN(C(c3ccccc3)c3ccccc3)CC2)c2ccccc21 gave a Stability [1] of 82%, a Stability [2] of 93% and an IC50 [3] of 0.015 µM. For the same molecule, the IC50 [4] was 2.5 µM, the IC50 [5] was 1.9 µM and the IC50 [6] was > 10 µM. The IC50 [7] was > 10 µM, the IC50 [8] was > 10 µM and the EC50 [9] was > 20 µM. For the same molecule, the EC50 [10] was > 20 µM, the EC50 (Raji [11]) was 3.2 µM and the EC50 (Raji [12]) was 2.4 µM.
With Cc1nc2sccn2c(=O)c1CCN1CCC(=C(c2ccc(F)cc2)c2ccc(F)cc2)CC1 [RITANSERIN] the IC50 [3] was > 5 µM, the IC50 [4] was > 10 µM and the IC50 [5] was > 10 µM. The IC50 [7] was > 10 µM, the IC50 [8] was > 10 µM and the EC50 [10] was > 20 µM. For the same molecule, the IC50 [13] was 15.1 µM and the EC50 [14] was > 10 µM.
Molecule Cn1c(=O)c([N+](=O)[O-])c(N2CCN(C(c3ccc(F)cc3)c3ccc(F)cc3)CC2)c2nc(C#N)ccc21 has a Stability [1] of 99%, a Stability [2] of 90% and an IC50 [3] of 0.005 µM. It also gave an IC50 [4] of 1 µM, an IC50 [5] of 0.68 µM and an IC50 [6] of 4.6 µM. The IC50 [7] was 0.002 µM, the IC50 [8] was 0.003 µM and the Activity (Mus musculus [15]) was “inactive”. For the same molecule, the Activity (Mus musculus [16]) was “Dose-Dependent Effect”, the AUC(0-t) at 72 h [17] was 14.8 µM·h and the half-life [18] was 22.5 h. For the same molecule, the clearance [19] was 1.9 mL/min/kg, the Vd [20] was 3.9 L/kg and the Cmax [21] was 1080 nM. The Tmax [22] was 3 h, the AUC(0-t) at 72 h [23] was 48 µM·h and the bioavailability [24] was 65%. For the same molecule, the EC50 [9] was 0.28 µM, the EC50 [10] was 0.52 µM and the EC50 [25] was 0.34 µM. The EC50 (Raji [11]) was 0.037 µM, the EC50 (Raji [12]) was 0.037 µM and the EC50 [14] was 0.065 µM.
Molecule Cc1nc2sccn2c(=O)c1CCN1CCC(=C(c2ccccc2)c2ccc(F)cc2)CC1 has an IC50 [13] of 25.4 µM.

Source: ChEMBL document CHEMBL5360601, “Discovery of Potent, Dual-Inhibitors of Diacylglycerol Kinases Alpha and Zeta Guided by Phenotypic Optimization” (ACS Med Chem Lett, 2023)
